Experimental data: PubChem BioAssay (NCI)
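Cells were grown in 96-well plates and exposed to each compound for 48 hours at five concentrations; endpoints were interpolated linearly between bracketing concentrations, or set to the highest concentration if not reached. GI50 = concentration required for 50% inhibition of growth. TGI: concentration producing complete growth inhibition.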

Legend:
Experiment in all cases: NCI-60 cell line screen, 48 h
786-0 renal = system: 786-0 renal
ACHN renal = system: ACHN renal
NCI-H23 lung = system: NCI-H23 lung
NCI/ADR-RES ovarian = system: NCI/ADR-RES ovarian
PC-3 prostate = system: PC-3 prostate
T-47D breast = system: T-47D breast
UACC-257 melanoma = system: UACC-257 melanoma
RPMI-8226 leukemia = system: RPMI-8226 leukemia
SK-MEL-2 melanoma = system: SK-MEL-2 melanoma

SMILES | TGI (786-0 renal) [µM] | TGI (ACHN renal) [µM] | TGI (NCI-H23 lung) [µM] | TGI (NCI/ADR-RES ovarian) [µM] | TGI (PC-3 prostate) [µM] | TGI (T-47D breast) [µM] | TGI (UACC-257 melanoma) [µM] | TGI (RPMI-8226 leukemia) [µM] | TGI (SK-MEL-2 melanoma) [µM] | GI50 (ACHN renal) [µM] | GI50 (NCI-H23 lung) [µM] | GI50 (NCI/ADR-RES ovarian) [µM] | GI50 (PC-3 prostate) [µM] | GI50 (RPMI-8226 leukemia) [µM] | GI50 (SK-MEL-2 melanoma) [µM] | GI50 (T-47D breast) [µM] | GI50 (UACC-257 melanoma) [µM]
C=C1OC(c2ccccc2NC)=NC12CCCCC2 | > 100 | > 100 | > 100 | > 100 | > 100 | > 100 | > 100 |  |  |  |  |  |  |  |  |  | 
CN(C)c1ccc(/C=C(\NC(=O)c2ccccc2)c2nn(C)c(=O)o2)cc1 | > 100 | > 100 | > 100 | 65.6 | > 100 | > 100 | > 100 | > 100 | > 100 |  |  |  |  |  |  |  | 
Cc1cc(S(=O)(=O)/N=C(/C(=C=[N-])C#N)[n+]2ccc(N(C)C)cc2)c(SCC(=O)O)cc1Cl | > 100 | > 100 | > 100 | > 100 | > 100 | > 100 | > 100 | > 100 | > 100 |  |  |  |  |  |  |  | 
O=C1C=CC=C/C1=C1\N=C(c2ccccc2OCC(=O)c2ccccc2)SS1 | > 100 | > 100 | > 100 | > 100 |  |  | > 100 | > 100 | > 100 |  |  |  |  |  |  |  | 
OCCOCn1nncc1Cn1ncc2c(SCc3ccccc3)ncnc21 | > 100 | > 100 | > 100 | > 100 | > 100 | > 100 | > 100 |  | > 100 |  |  |  |  |  |  |  | 
COc1ccccc1C1Nn2c(nc3ccccc3c2=O)N1c1ccc(C)cc1 (stereo not given) | 8.37 | 16.7 | 29.3 | 23.6 | 10.8 | 21 | 43.3 | 25.9 | 25.3 |  |  |  |  |  |  |  | 
O=C1NC2CCCCC2N=C1CC(=O)c1ccc(Br)cc1 (stereo not given) | > 100 | > 100 | > 100 | > 100 | > 100 | > 100 | > 100 | 7.16 | > 100 |  |  |  |  |  |  |  | 
COc1ccccc1CN=C1Nc2ccncc2S(=O)(=O)N1c1ccccc1 | > 100 | > 100 | > 100 | > 100 | > 100 |  | > 100 | > 100 |  |  |  |  |  |  |  |  | 
NC(=O)c1csc(C2(O)COC(CO)C2O)n1 (stereo not given) | > 100 | > 100 | > 100 | > 100 | > 100 | > 100 | > 100 | > 100 | > 100 |  |  |  |  |  |  |  | 
O=C(OCCN=c1c2ccccc2ccc2ccccc12)c1ccccc1 | > 100 | > 100 | > 100 | > 100 | > 100 |  | > 100 | > 100 | > 100 |  |  |  |  |  |  |  | 
COc1ccc(OC2OC(CO)C(OCc3ccccc3)C(OCc3ccccc3)C2OCc2ccccc2)cc1 (stereo not given) | > 100 | > 100 | > 100 | > 100 | > 100 | > 100 | > 100 | > 100 | > 100 |  |  |  |  |  |  |  | 
Cn1c(=O)c(-c2ccccc2)c(O)c2ccccc21 | > 100 | > 100 | > 100 | > 100 | > 100 |  | > 100 | > 100 |  |  |  |  |  |  |  |  | 
O=c1cc(-c2ccncc2)[nH]c2cc3c(cc12)OCO3 | > 100 | > 100 | > 100 | > 100 |  | > 100 | > 100 | > 100 | > 100 |  |  |  |  |  |  |  | 
O=C(CCc1cc(O)cc(O)c1)NCCCNC(=O)CCc1cc(O)cc(O)c1 | > 100 | > 100 | > 100 | > 100 | > 100 | > 100 | > 100 | > 100 | > 100 |  |  |  |  |  |  |  | 
CO[C@H]1SC[C@H](OC(C)=O)[C@H](OC(C)=O)[C@H]1OC(C)=O | > 100 | > 100 | > 100 | > 100 |  | > 100 | > 100 | > 100 | > 100 |  |  |  |  |  |  |  | 
Cc1ccc2c(c1)-c1c(C#N)c(N)nc(-c3ccc(Cl)cc3)c1CCS2(=O)=O | > 100 | > 100 | > 100 | 98.2 | > 100 | > 100 | > 100 | 8.45 | > 100 |  |  |  |  |  |  |  | 
CCOc1ccc(Nc2nc(N)nc(N)c2N)cc1 | 52.3 | > 100 | > 100 | > 100 | > 100 | 54.3 | > 100 | 38.1 | > 100 |  |  |  |  |  |  |  | 
O=C(O)c1cccc2cccc(-c3cccc4cccc(C(=O)O)c34)c12 | > 100 | > 100 | > 100 | > 100 | > 100 | > 100 | > 100 |  | > 100 |  |  |  |  |  |  |  | 
O=c1c(Cc2ccc(Cl)cc2)nnc2sc(-c3ccc(-c4ccc(F)c(Cl)c4)o3)nn12 | > 100 | > 100 | > 100 | > 100 | > 100 | > 100 | > 100 | > 100 | > 100 |  |  |  |  |  |  |  | 
O=[N+]([O-])c1ccc(NC(=S)N=Nc2c(O)[nH]c3ccc([N+](=O)[O-])cc23)cc1 | 32.3 | 74 | 41.1 | 48.6 | 49.3 | 63.1 | 50.3 | > 100 | 35.8 |  |  |  |  |  |  |  | 
CCC(CO)Nc1nc(NCc2ccccc2)c2ncn(C(C)C)c2n1 (stereo not given) | > 80.7 | > 100 | 36.1 | 42.3 | 37.1 | > 100 | > 94.7 | > 100 | 38.9 |  |  |  |  |  |  |  | 
CC[C@H](Nc1nc(C)nc(N)c1C#N)c1nc2cccc(NCc3ccc(C(=O)NO)cc3)c2c(=O)n1-c1ccccc1 |  | 3.69 | 4.05 | 4.69 | 4.04 | 7.06 | 4.16 | 5.26 | 5.51 | 1.63 | 1.83 | 1.99 | 1.47 | 2.03 | 2.07 | 1.86 | 1.83
CCC(O)(Cc1ccc(OC)cc1)c1ccc(OC)cc1 (stereo not given) | > 100 | > 100 | > 100 | > 100 | > 100 |  | > 100 | > 100 | > 100 |  |  |  |  |  |  |  | 
